Reference: ChEMBL document CHEMBL1201862, “PubChem BioAssay data set” (2004)
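Five concentrations, 48 hours, 96-well plates. GI50 marks 50% less growth.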 Activity calls are given as the source filed them. Rule as the data show it: active = GI50 up to about 1.1 µM and inactive = higher.

How the values were obtained:
Test in all cases: inhibition of tumour cell growth, NCI panel, 48 h
[1] = tested on: SN12C
[2] = tested on: SNB-19
[3] = tested on: TK-10
[4] = tested on: RXF 393
[5] = tested on: KM12
[6] = tested on: SNB-75
[7] = tested on: UO-31
[8] = tested on: MOLT-4
[9] = tested on: SK-MEL-5
[10] = tested on: CCRF-CEM
[11] = tested on: UACC-257
[12] = tested on: SR
[13] = tested on: HOP-62
[14] = tested on: ACHN
[15] = tested on: SF-539
[16] = tested on: A498
[17] = tested on: NCI/ADR-RES

| SMILES | GI50 [1] | GI50 [2] | GI50 [3] | GI50 [4] | GI50 [5] | GI50 [6] | GI50 [7] | GI50 [8] | GI50 [9] | GI50 [10] | GI50 [11] | GI50 [12] | GI50 [13] | GI50 [14] | GI50 [15] | GI50 [16] | GI50 [17] |
| --- | --- | --- | --- | --- | --- | --- | --- | --- | --- | --- | --- | --- | --- | --- | --- | --- | --- |
| CN(O)C(=O)c1ccccc1 | > 100 µM (inactive) | > 100 µM (inactive) | > 100 µM (inactive) | > 100 µM (inactive) | > 100 µM (inactive) | > 100 µM (inactive) | > 100 µM (inactive) | > 100 µM (inactive) | > 100 µM (inactive) | > 100 µM (inactive) | > 100 µM (inactive) | > 100 µM (inactive) | > 100 µM (inactive) | > 100 µM (inactive) | > 100 µM (inactive) |  |  |
| COc1ccc(-c2onc(-c3ccc([N+](=O)[O-])cc3)c2C2=NCCCN2)cc1 | > 100 µM (inactive) | > 100 µM (inactive) |  | 88.1 µM (inactive) | > 100 µM (inactive) | > 100 µM (inactive) | 18.4 µM (inactive) | 76.2 µM (inactive) | 30.2 µM (inactive) | > 100 µM (inactive) | 87.7 µM (inactive) | 45.4 µM (inactive) | > 100 µM (inactive) | > 100 µM (inactive) | > 100 µM (inactive) |  |  |
| O=C(O)Cc1cc(=O)[nH]c2c1/C(=N/O)CCC2 | > 100 µM (inactive) | > 100 µM (inactive) | > 100 µM (inactive) | > 100 µM (inactive) | > 100 µM (inactive) |  | > 100 µM (inactive) | > 100 µM (inactive) | > 100 µM (inactive) | > 100 µM (inactive) | > 100 µM (inactive) | > 100 µM (inactive) |  | > 100 µM (inactive) | > 100 µM (inactive) |  |  |
| Cc1cc2nc3c(=O)n(C)c(=O)nc-3n(-c3ccc(Cl)cc3)c2cc1C | 5.85 µM (inactive) | 5.78 µM (inactive) | 31.9 µM (inactive) |  | 16 µM (inactive) | 11.4 µM (inactive) | 20 µM (inactive) | 11.2 µM (inactive) | 1.72 µM (inactive) | 13.6 µM (inactive) | 6.75 µM (inactive) |  | 24.4 µM (inactive) | 11.4 µM (inactive) | 11.2 µM (inactive) | 31.1 µM (inactive) |  |
| CCOC(=O)c1sc(Nc2cc(Cl)ccc2Cl)nc1C | 61.9 µM (inactive) | > 100 µM (inactive) | > 100 µM (inactive) | > 100 µM (inactive) | > 100 µM (inactive) | 15.6 µM (inactive) | > 100 µM (inactive) | 29.6 µM (inactive) |  |  | 81.8 µM (inactive) | 52.5 µM (inactive) | > 100 µM (inactive) | 35.5 µM (inactive) | > 100 µM (inactive) | > 100 µM (inactive) |  |
| C=C1C2Oc3ccccc3C1N(c1ccccc1)O2 (configuration not stated) | 23.7 µM (inactive) | 49 µM (inactive) | 84.9 µM (inactive) | 30.9 µM (inactive) | 17.9 µM (inactive) | 43.8 µM (inactive) | 47.9 µM (inactive) | 20 µM (inactive) |  | 21.3 µM (inactive) | 40.6 µM (inactive) | 30.5 µM (inactive) | 66.7 µM (inactive) | 37.2 µM (inactive) | 23.8 µM (inactive) |  |  |
| Cc1ccc(C)c(N2C(=O)C(=O)C(c3nc4ccccc4o3)/C(=N\NC(=O)c3ccccc3O)C2=O)c1 (configuration not stated) | 26.2 µM (inactive) | 12.3 µM (inactive) | 44 µM (inactive) |  |  | 5.7 µM (inactive) | 16.3 µM (inactive) | 12.8 µM (inactive) | 38.5 µM (inactive) | 4.09 µM (inactive) | 23 µM (inactive) | 30.1 µM (inactive) | 24.9 µM (inactive) | 12 µM (inactive) | 19.1 µM (inactive) | 13 µM (inactive) |  |
| Cc1cc(N(CCC#N)CCC#N)ccc1/C=C1/N=C(c2ccccc2)N(N)C1=O | > 100 µM (inactive) | 31.1 µM (inactive) | 74.1 µM (inactive) |  | > 100 µM (inactive) | 21.1 µM (inactive) | > 100 µM (inactive) | > 100 µM (inactive) | > 100 µM (inactive) | 61.7 µM (inactive) | > 100 µM (inactive) |  | 31.9 µM (inactive) | > 100 µM (inactive) | 60.8 µM (inactive) | > 100 µM (inactive) |  |
| CCN(CC)CCCNC(=O)C1COc2cc(-c3cc(=O)c4ccccc4o3)ccc2O1 (configuration not stated) | 45.6 µM (inactive) | > 100 µM (inactive) | 42.4 µM (inactive) | 39.8 µM (inactive) |  | 45.9 µM (inactive) | 27.4 µM (inactive) | 33.4 µM (inactive) | 19.7 µM (inactive) | 43.8 µM (inactive) | 21.6 µM (inactive) | 19.9 µM (inactive) | > 100 µM (inactive) | 51.4 µM (inactive) | 19.5 µM (inactive) | 48.2 µM (inactive) |  |
| O=C(O)/C(Cl)=C(\Cl)C(=O)c1ccccc1 | > 100 µM (inactive) | > 100 µM (inactive) | > 100 µM (inactive) | > 100 µM (inactive) | > 100 µM (inactive) | > 100 µM (inactive) | > 100 µM (inactive) | > 100 µM (inactive) | > 100 µM (inactive) | > 100 µM (inactive) | > 100 µM (inactive) | > 100 µM (inactive) | > 100 µM (inactive) | > 100 µM (inactive) | > 100 µM (inactive) | > 100 µM (inactive) |  |
| CC(=O)OCc1cc(=O)n(C)c2c3c4c(cc12)c(C)cc(=O)n4CO3 | 1.66 µM (inactive) | 1.61 µM (inactive) |  | 1.3 µM (inactive) | 1.23 µM (inactive) | 1.91 µM (inactive) | 1.64 µM (inactive) | 0.478 µM (active) | 1.66 µM (inactive) | 0.853 µM (active) | 2.05 µM (inactive) |  | 1.2 µM (inactive) |  | 1.03 µM (active) | 2.38 µM (inactive) | 1 µM (active) |
| Cc1ccc([N+](=O)[O-])cc1NC(=O)C(=O)Cc1occc(=O)c1O | > 100 µM (inactive) | > 100 µM (inactive) | > 100 µM (inactive) | > 100 µM (inactive) | > 100 µM (inactive) | > 100 µM (inactive) | > 100 µM (inactive) |  | > 100 µM (inactive) | > 100 µM (inactive) |  | > 100 µM (inactive) | > 100 µM (inactive) | > 100 µM (inactive) | > 100 µM (inactive) | > 100 µM (inactive) |  |
| O=C1OC(c2ccccc2)(c2ccccc2)c2ccc3ccc(F)cc3c21 | > 100 µM (inactive) | > 100 µM (inactive) | > 100 µM (inactive) | > 100 µM (inactive) | > 100 µM (inactive) | 37.6 µM (inactive) | 79.4 µM (inactive) | > 100 µM (inactive) | 20 µM (inactive) | 31.3 µM (inactive) | 37.1 µM (inactive) | 10.7 µM (inactive) | > 100 µM (inactive) | 49.8 µM (inactive) | > 100 µM (inactive) | > 100 µM (inactive) |  |
| C1=Nc2ccccc2Cn2nncc21 | > 100 µM (inactive) | > 100 µM (inactive) | > 100 µM (inactive) | > 100 µM (inactive) | 47.1 µM (inactive) |  | 89.1 µM (inactive) | > 100 µM (inactive) | > 10 µM (inactive) | 49.9 µM (inactive) |  | 60.3 µM (inactive) | > 100 µM (inactive) | > 100 µM (inactive) | 28.6 µM (inactive) |  |  |
| CC(C)c1cccc2sc(NC(=O)C(=O)CC(=O)c3ccc(F)cc3)nc12 | > 100 µM (inactive) | > 100 µM (inactive) | > 100 µM (inactive) | > 100 µM (inactive) | > 100 µM (inactive) | 59.7 µM (inactive) | > 100 µM (inactive) |  | > 100 µM (inactive) | > 100 µM (inactive) | > 100 µM (inactive) |  | > 100 µM (inactive) | > 100 µM (inactive) | > 100 µM (inactive) | > 100 µM (inactive) |  |
| Clc1ccc(C[P+](c2ccccc2)(c2ccccc2)c2ccccc2)cc1Cl | 4.04 µM (inactive) | 3.21 µM (inactive) | 5.05 µM (inactive) |  | 2.69 µM (inactive) | 1.77 µM (inactive) |  |  | 1.42 µM (inactive) | 3.07 µM (inactive) | 2.14 µM (inactive) | 2.61 µM (inactive) | 9.08 µM (inactive) | 13.1 µM (inactive) | 4.4 µM (inactive) | 12.6 µM (inactive) |  |
| CCCCC1(C2c3ccccc3Oc3ccccc32)C(=O)N(c2ccccc2)N(c2ccccc2)C1=O | > 61.9 µM (inactive) | 82 µM (inactive) |  | 19.9 µM (inactive) | 63.5 µM (inactive) | 86.7 µM (inactive) | > 83.2 µM (inactive) | > 10 µM (inactive) | 34.3 µM (inactive) | 22.5 µM (inactive) | 29.4 µM (inactive) |  | > 100 µM (inactive) |  | > 100 µM (inactive) | 64.9 µM (inactive) | 62.2 µM (inactive) |
| CC(C)(C)OC(=O)NC(Cc1ccccc1)C(=S)N1CCCC1 (configuration not stated) | > 100 µM (inactive) | > 100 µM (inactive) | > 100 µM (inactive) | 58.9 µM (inactive) | > 100 µM (inactive) | 55.5 µM (inactive) | 40.4 µM (inactive) | 42.6 µM (inactive) | 57 µM (inactive) | 69.2 µM (inactive) | 89.1 µM (inactive) |  | 25.8 µM (inactive) | > 100 µM (inactive) | > 100 µM (inactive) | > 100 µM (inactive) |  |
| C=C(C=O)[C@@H]1C2OC(=O)C(=C)[C@@H]2CC(O)[C@@]1(C)CC (some centres not stated) | 10.1 µM (inactive) | 45.2 µM (inactive) | 15.7 µM (inactive) | 2.11 µM (inactive) | 13.1 µM (inactive) | > 100 µM (inactive) | 21.3 µM (inactive) | 2.48 µM (inactive) | 6.78 µM (inactive) | 2.08 µM (inactive) | 11.9 µM (inactive) | 3.4 µM (inactive) | 50.2 µM (inactive) | 13.7 µM (inactive) | 9.29 µM (inactive) | 17.1 µM (inactive) |  |
